Test results: patent publication US4965352A, “Anthracycline derivatives having cytostatic activity” (Behringwerke Aktiengesellschaft, priority 1986, dated 1990)
Converted amounts (≈) assume the structure as drawn.

How the values were obtained:
[1] = Acute toxicity in NMRI mice after intravenous injection; conditions: mouse, in vivo, survival on day 14, Litchfield-Wilcoxon
Protocol: Details of the test method are evident from the procecdure for determining the formation of colonies given herein after. Appropriate tests on NMRI mice were carried out to determine the acute toxicity of the anthracycline derivatives according to the invention. Details of the test method are evident from the procedure for determining the acute toxicity given hereinafter.
Determination of the acute toxicity entailed intravenous injection of various doses of the test substance, disolved in 0.5 ml of physiological saline solution, in NMRI mice on day 0. Control groups received only 0.5 ml of physiological saline solution. 5 mice were used for each concentration of the test substance. The number of surviving mice was determined on day 14, and the LD50 was determined therefrom by the Litchfield-Wilcoxon method. The toxicity of the compounds described here is compiled in Table 1, comparing with adriamycin.

[2] = system: mouse L1210 leukemia cells; assay: Formation of L1210 leukemia cell colonies in soft agar; format: cell-based; conditions: for IC50: Mus musculus, L1210, 168 h, read-out: Cytotoxicity (continuous incubation) IC50; for cytostatic activity compared with adriamycin: result in words, test not named
Protocol: The cytostatic activity of the compounds according to the invention has been tested using mouse L1210 leukemia cells. Use was made for this of the formation of L1210 leukemia cell colonies in soft agar. This method is used to detect the effect of the test substances on the growth behavior of the cells over several generations. In this connection, with a cell cycle time of 10 to 12 hours, about 14 consecutive generations are observed in the 7-day duration of the test. In this test, the substances having cytostatic activity according to the invention bring about a reduction, compared with an untreated control sample, in the number of colonies which is to be observed.
500 leukemia cells per plate were incubated with various concentrations of the test substance at 37° C. for 1 hour. The cells were then washed twice with McCoy 5A medium, 0.3% agar was added, and finally the mixture was poured into Petri dishes. Controls were incubated only with fresh medium. In place of the incubation for one hour, in some cases various concentrations and test substances were mixed with the upper agar layer in order in this way to achieve continuous exposure of the cells throughout the incubation time. After the agar had solidified, the plates were incubated in an incubator at 37° C. for 7 days (5% by volume CO2, 95% relative atmospheric humidity). Thereafter the number of colonies with a diameter of more than 60μ which had formed was counted. The results have been stated as the number of colonies in treated agar plates as a percentage of the untreated control. The dose-effect graph obtained in this way was used to determine the IC50 as a measure of the activity of the substance. The results for the compounds described here are compiled in Table 1, comparing with adriamycin.

Row | SMILES | LD50 at 336 h [1] | IC50 [2] | cytostatic activity compared with adriamycin [2]
1 | COc1cccc2c1C(=O)c1c(O)c3c(c(O)c1C2=O)C[C@@](O)(C(=O)CO)C[C@@H]3O[C@H]1C[C@H](N)[C@H](O)[C@H](C)O1 [Adriamycin, reference compound] | 26.5 mg/kg | 0.02 µg/mL (≈ 0.0368 µM) | –
2 | CC[C@@]1(O)C[C@H](O[C@H]2C[C@H](N(C)C)[C@H](OC(C)=O)[C@H](C)O2)c2c(O)c3c(c(O)c2[C@H]1C(=O)OC)C(=O)c1c(O)ccc(O)c1C3=O [Compound 1, 7-O-(4'-O-acetyl--L-rhodosaminyl)-ε-isorhodomycinone] | 89 mg/kg | 0.028 µg/mL (≈ 0.0435 µM) | comparable with that of adriamycin
3 | CC[C@@]1(O)C[C@H](O[C@H]2C[C@H](N(C)C)[C@H](O)[C@H](C)O2)c2c(O)c3c(c(O)c2[C@H]1C(=O)OC)C(=O)c1c(O)ccc(O)c1C3=O [Compound 2, 7-O-(α-L-rhodosaminyl)-ε-isorhodomycinone] | 50 to 100 mg/kg | 0.035 µg/mL (≈ 0.0582 µM) | comparable with that of adriamycin
4 | CC[C@@]1(O)C[C@H](O[C@H]2C[C@H](NC(=O)C(F)(F)F)[C@H](O)[C@H](C)O2)c2c(O)c3c(c(O)c2[C@H]1C(=O)OC)C(=O)c1c(O)ccc(O)c1C3=O [Compound 5, 7-O-(3'-N-trifluoroacetyl-α-L-daunosaminyl)-ε-isorhodomycinone] | – | 0.4 µg/mL (≈ 0.597 µM) | –
5 | CC[C@@]1(O)C[C@H](O[C@H]2C[C@H](NC)[C@H](OC(C)=O)[C@H](C)O2)c2c(O)c3c(c(O)c2[C@H]1C(=O)OC)C(=O)c1c(O)ccc(O)c1C3=O [Compound 8, 7-O-(4'-O-acetyl-3'-N-methyl-α-L-daunosaminyl)-ε-isorhodomycinone] | – | 0.1 µg/mL (≈ 0.159 µM) | –
6 | CC[C@@]1(O)C[C@H](O[C@H]2C[C@H](NC)[C@H](O)[C@H](C)O2)c2c(O)c3c(c(O)c2[C@H]1C(=O)OC)C(=O)c1c(O)ccc(O)c1C3=O [Compound 9, 7-O-(3'-N-methyl--L-daunosaminyl)-ε-isorhodomycinone] | – | 0.028 µg/mL (≈ 0.0477 µM) | –
